Source: paper PMC12260505, “First-in-Human Phase I/IIa Study of the First-in-Class CDK2/4/6 Inhibitor PF-06873600 Alone or with Endocrine Therapy in Patients with Breast Cancer” (Clinical Cancer Research, 2025)
“And” between values parts separate entries of the source, which are not always exact repeats. Identical values can stand only once.

Assay: Plasma PF-06873600 pharmacokinetics (LC/MS-MS, noncompartmental analysis)
Format: in vivo, human
Method: Plasma samples were analyzed for PF-06873600 concentrations at Q2 Solutions using a validated analytic assay in compliance with Pfizer standard operating procedures. PF-06873600 samples were assayed by a validated LC/MS-MS using positive ionization mode. PK parameters were calculated using noncompartmental analysis of plasma concentration–time data.

[1] = Cycle 1 Day 15, Part 1A 1 mg BID IR
[2] = Cycle 1 Day 15, Part 1A 2 mg BID IR
[3] = Cycle 1 Day 15, Part 1A 5 mg BID IR
[4] = Cycle 1 Day 15, Part 1A 10 mg BID IR
[5] = Cycle 1 Day 15, Part 1A 25 mg BID Biomarker IR
[6] = Cycle 1 Day 15, Part 1A 25 mg BID IR
[7] = Cycle 1 Day 15, Part 1A 35 mg BID IR
[8] = Cycle 1 Day 15, Part 1A 35 mg BID Intm 5/2 IR
[9] = Cycle 1 Day 15, Part 1A 50 mg BID IR
[10] = Cycle 1 Day 15, Part 1B 25 mg BID +Ful IR
[11] = Cycle 1 Day 15, Part 1B 25 mg BID +Let IR
[12] = Cycle 1 Day 15, Part 1C MR 30 mg BID long duration
[13] = Day -4, Part 1C single dose 20 mg MR Long Duration
[14] = Day -7, Part 1C single dose 20 mg MR Short Duration

Compound: C[C@@]1(O)CCC[C@H]1n1c(=O)c(C(F)F)cc2cnc(NC3CCN(S(C)(=O)=O)CC3)nc21 [PF-06873600]
- Cmax, individual value(s) [1]: 0.0109 µg/mL
- Cmin, individual value(s) [1]: 0 µg/mL
- Rac (observed accumulation ratio based on AUC), individual value(s) [1]: 1.21
- Tmax, median (range) [1]: 1.00 h
- AUCtau, individual value(s) [2]: 0.0514 µg·h/mL and 0.0869 µg·h/mL
- CL/F, individual value(s) [2]: 23.0 L/h and 38.9 L/h
- Cmax, individual value(s) [2]: 0.0182 µg/mL and 0.0454 µg/mL
- Rac (observed accumulation ratio based on AUC), individual value(s) [2]: 1.16
- Tmax, median (range) [2]: 1.25 h
- Vz/F, individual value(s) [2]: 53.3 L and 98.4 L
- t1/2, individual value(s) [2]: 5800 s and 6300 s
- Cmin, individual value(s) (Cycle 1 Day 15, Part 1A 2 mg BID IR (both patients 0.000)): 0 µg/mL
- AUCtau, individual value(s) [3]: 0.15 µg·h/mL and 0.483 µg·h/mL
- CL/F, individual value(s) [3]: 10.4 L/h and 33.2 L/h
- Cmax, individual value(s) [3]: 0.0463 µg/mL and 0.126 µg/mL
- Cmin, individual value(s) [3]: 0.00119 µg/mL and 0.0236 µg/mL
- Rac (observed accumulation ratio based on AUC), individual value(s) [3]: 1.53
- Tmax, median (range) [3]: 1.20 h
- Vz/F, individual value(s) [3]: 124 L
- t1/2, individual value(s) [3]: 9320 s
- AUCtau, geometric mean (%CV) [4]: 448.8 (25) ng.h/mL
- CL/F, geometric mean (%CV) [4]: 22.28 (24) L/h
- Cmax, geometric mean (%CV) [4]: 124.3 (29) ng/mL
- Cmin, geometric mean (%CV) [4]: 5.499 (5) ng/mL
- Rac (observed accumulation ratio based on AUC), geometric mean (%CV) [4]: 0.7263
- Tmax, median (range) [4]: 2.00 h
- Vz/F, geometric mean (%CV) [4]: 72.17 (19) L
- t1/2, arithmetic mean±standard deviation [4]: 2.250 h
- AUCtau, geometric mean (%CV) [5]: 1010 (40) ng.h/mL
- CL/F, geometric mean (%CV) [5]: 24.76 (40) L/h
- Cmax, geometric mean (%CV) [5]: 246.4 (40) ng/mL
- Cmin, geometric mean (%CV) [5]: 21.28 (130) ng/mL
- Rac (observed accumulation ratio based on AUC), geometric mean (%CV) [5]: 1.254 (49)
- Tmax, median (range) [5]: 1.92 h
- Vz/F, geometric mean (%CV) [5]: 99.62 (35) L
- t1/2, arithmetic mean±standard deviation [5]: 2.797 h
- AUCtau, geometric mean (%CV) [6]: 1695 (34) ng.h/mL
- CL/F, geometric mean (%CV) [6]: 14.78 (34) L/h
- Cmax, geometric mean (%CV) [6]: 382.4 (33) ng/mL
- Cmin, geometric mean (%CV) [6]: 37.63 ng/mL
- Rac (observed accumulation ratio based on AUC), geometric mean (%CV) [6]: 1.045 (17)
- Tmax, median (range) [6]: 1.95 h
- Vz/F, geometric mean (%CV) [6]: 57.62 (29) L
- t1/2, arithmetic mean±standard deviation [6]: 2.733 h
- AUCtau, individual value(s) [7]: 2.06 µg·h/mL and 2.36 µg·h/mL
- CL/F, individual value(s) [7]: 14.8 L/h and 17.0 L/h
- Cmax, individual value(s) [7]: 0.362 µg/mL and 0.399 µg/mL
- Cmin, individual value(s) [7]: 0.0521 µg/mL and 0.0804 µg/mL
- Rac (observed accumulation ratio based on AUC), individual value(s) [7]: 0.822
- Tmax, median (range) [7]: 2.01 h
- Vz/F, individual value(s) [7]: 70.8 L
- t1/2, individual value(s) [7]: 11900 s
- AUCtau, geometric mean (%CV) [8]: 1372 (39) ng.h/mL
- CL/F, geometric mean (%CV) [8]: 25.54 (39) L/h
- Cmax, geometric mean (%CV) [8]: 290.2 (29) ng/mL
- Cmin, geometric mean (%CV) [8]: 25.56 (8) ng/mL
- Rac (observed accumulation ratio based on AUC), geometric mean (%CV) [8]: 0.8893
- Tmax, median (range) [8]: 2.23 h
- Vz/F, geometric mean (%CV) [8]: 99.03 (48) L
- t1/2, arithmetic mean±standard deviation [8]: 2.752 h
- AUCtau, geometric mean (%CV) [9]: 1607 (34) ng.h/mL
- CL/F, geometric mean (%CV) [9]: 21.99 (44) L/h
- Cmax, geometric mean (%CV) [9]: 335.2 (22) ng/mL
- Cmin, geometric mean (%CV) [9]: 25.63 ng/mL
- Rac (observed accumulation ratio based on AUC), geometric mean (%CV) [9]: 1.260 (25)
- Tmax, median (range) [9]: 1.98 h
- Vz/F, geometric mean (%CV) [9]: 75.41 (17) L
- t1/2, arithmetic mean±standard deviation [9]: 2.535 h
- AUCtau, geometric mean (%CV) [10]: 1229 (41) ng.h/mL
- CL/F, geometric mean (%CV) [10]: 20.35 (41) L/h
- Cmax, geometric mean (%CV) [10]: 305.0 (35) ng/mL
- Cmin, geometric mean (%CV) [10]: 21.25 ng/mL
- Rac (observed accumulation ratio based on AUC), geometric mean (%CV) [10]: 1.191 (29)
- Tmax, median (range) [10]: 1.88 h
- Vz/F, geometric mean (%CV) [10]: 75.71 (32) L
- t1/2, arithmetic mean±standard deviation [10]: 2.508 h
- AUCtau, geometric mean (%CV) [11]: 1273 (50) ng.h/mL
- CL/F, geometric mean (%CV) [11]: 19.63 (49) L/h
- Cmax, geometric mean (%CV) [11]: 276.5 (31) ng/mL
- Cmin, geometric mean (%CV) [11]: 13.33 ng/mL
- Rac (observed accumulation ratio based on AUC), geometric mean (%CV) [11]: 1.268 (35)
- Tmax, median (range) [11]: 2.08 h
- Vz/F, geometric mean (%CV) [11]: 80.33 (27) L
- t1/2, arithmetic mean±standard deviation [11]: 2.468 h
- AUCtau, geometric mean (%CV) [12]: 636.8 (59) ng.h/mL
- CL/F, geometric mean (%CV) [12]: 47.08 (59) L/h
- Cmax, geometric mean (%CV) [12]: 0.0821 µg/mL
- Cmin, geometric mean (%CV) [12]: 45.78 (49) ng/mL
- Tmax, median (range) [12]: 2.99 (0.000–4.00) h
- AUCinf, individual value(s) [13]: 0.584 µg·h/mL and 0.713 µg·h/mL
- AUClast, geometric mean (%CV) [13]: 469.7 (63) ng.h/mL
- CL/F, individual value(s) [13]: 28.0 L/h and 34.3 L/h
- Cmax, geometric mean (%CV) [13]: 0.039 µg/mL
- Tmax, median (range) [13]: 12.0 (6.00–12.0) h
- Vz/F, individual value(s) [13]: 163 L and 496 L
- t1/2, individual value(s) [13]: 14500 s and 36000 s
- AUCinf, geometric mean (%CV) [14]: 687.8 (73) ng.h/mL
- AUClast, geometric mean (%CV) [14]: 639.7 (67) ng.h/mL
- CL/F, geometric mean (%CV) [14]: 29.05 (73) L/h
- Cmax, geometric mean (%CV) [14]: 0.0737 µg/mL
- Tmax, median (range) [14]: 5.33 (2.00–6.00) h
- Vz/F, geometric mean (%CV) [14]: 218.1 (50) L
- t1/2, arithmetic mean±standard deviation [14]: 6.778 ± 5.7890 h
- Part of dosing interval with mean steady-state PK concentrations above predicted effective concentrations (Ceff) (RDE 25 mg twice daily, Ceff from HCC1428, HCC1806, and Ovar3 models): at least 70 % of the dosing interval
- Criterion of concentrations above Ceff for at least 70% of the dosing interval (RDE 25 mg twice daily, Ceff from the MCF7 model): not achieved
- Plasma exposures, monotherapy vs combination therapy with fulvestrant or letrozole (in vivo): largely comparable
